Experimental data reported in ChEMBL document CHEMBL4823296, “NMR-Guided Design of Potent and Selective EphA4 Agonistic Ligands” (J Med Chem, 2021).
Non-standard residues stand in square brackets, D forms with d. Residues, ends and D or L forms follow the SMILES beside them. *: point of attachment. Phe(4-(2-MeO-Ph)) = COc1ccccc1-c1ccc(C[C@H](N)C(=O)O)cc1; Cyclohexanoyl(1S,3S-3-NH2) = N[C@H]1CCC[C@H](C(=O)*)C1; Phe(4-guanidino) = N=C(N)Nc1ccc(C[C@H](N)C(=O)O)cc1; Trp(6-OMe) = COc1ccc2c(C[C@H](N)C(=O)O)c[nH]c2c1; Trp(5-OH) = N[C@@H](Cc1c[nH]c2ccc(O)cc12)C(=O)O; NHPh(4-CH2-morpholino) = c1cc(N*)ccc1CN1CCOCC1; NH(4-morpholinophenyl) = c1cc(N2CCOCC2)ccc1N*; Trp(7-aza) = N[C@@H](Cc1c[nH]c2ncccc12)C(=O)O; Bip = N[C@@H](Cc1ccc(-c2ccccc2)cc1)C(=O)O; 1Nal = N[C@@H](Cc1cccc2ccccc12)C(=O)O; 2Nal = N[C@@H](Cc1ccc2ccccc2c1)C(=O)O; d(hArg) = N=C(N)NCCCC[C@@H](N)C(=O)O; hArg = N=C(N)NCCCC[C@H](N)C(=O)O; X4 = COc1cc(CN*)cc(OC)c1; NHPh = c1ccc(N*)cc1; GABA = NCCCC(=O)O; X1 = Oc1ccccc1CN*; X2 = Oc1ccccc1N*; X3 = Oc1cccnc1N*

Legend:
Ephrin type-A receptor 4 [1] = target: T1, Ephrin type-A receptor 4 (Homo sapiens, UniProt P54764)
T1 sequence (P54764 whole entry): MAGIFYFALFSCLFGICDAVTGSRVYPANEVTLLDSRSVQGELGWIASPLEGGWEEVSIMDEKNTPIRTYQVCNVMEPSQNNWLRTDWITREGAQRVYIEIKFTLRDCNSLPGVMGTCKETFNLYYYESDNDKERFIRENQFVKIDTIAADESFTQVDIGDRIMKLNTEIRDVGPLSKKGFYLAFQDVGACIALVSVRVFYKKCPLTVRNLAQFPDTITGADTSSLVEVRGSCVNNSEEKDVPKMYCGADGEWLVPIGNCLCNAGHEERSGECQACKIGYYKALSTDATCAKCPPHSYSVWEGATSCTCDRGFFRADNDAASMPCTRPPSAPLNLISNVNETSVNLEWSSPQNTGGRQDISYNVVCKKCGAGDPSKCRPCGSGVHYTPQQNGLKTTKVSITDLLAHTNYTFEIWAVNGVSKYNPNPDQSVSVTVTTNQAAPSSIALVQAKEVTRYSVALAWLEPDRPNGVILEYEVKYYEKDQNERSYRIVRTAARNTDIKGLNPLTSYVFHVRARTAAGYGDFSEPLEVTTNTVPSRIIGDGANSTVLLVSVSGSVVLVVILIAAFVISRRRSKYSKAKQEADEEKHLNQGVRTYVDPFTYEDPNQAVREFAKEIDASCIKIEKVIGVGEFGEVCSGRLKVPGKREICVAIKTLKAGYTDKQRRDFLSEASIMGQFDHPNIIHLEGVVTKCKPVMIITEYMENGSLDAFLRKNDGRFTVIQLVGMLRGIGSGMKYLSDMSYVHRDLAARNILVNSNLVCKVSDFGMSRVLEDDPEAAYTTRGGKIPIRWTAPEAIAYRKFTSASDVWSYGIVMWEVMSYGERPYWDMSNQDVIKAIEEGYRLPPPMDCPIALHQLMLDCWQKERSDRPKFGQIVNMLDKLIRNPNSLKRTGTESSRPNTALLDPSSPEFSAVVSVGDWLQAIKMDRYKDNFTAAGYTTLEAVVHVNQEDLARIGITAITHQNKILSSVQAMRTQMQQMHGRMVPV
Description: Binding affinity to N-terminal His tagged EphA4 LBD (unknown origin) (29 to 209 residues) expressed in Rosetta-Gami B(DE3) cells assessed as change in enthalpy by isothermal titration calorimetry

Ephrin type-A receptor 4 [2] = target: T1, Ephrin type-A receptor 4; remark: listed apart in the source
Description: Binding affinity to N-terminal His tagged EphA4 LBD (unknown origin) (29 to 209 residues) expressed in Rosetta-Gami B(DE3) cells assessed as change in entropy by isothermal titration calorimetry

Ephrin type-A receptor 4 [3] = target: T1, Ephrin type-A receptor 4; test: Binding affinity to N-terminal His tagged EphA4 LBD (unknown origin) (29 to 209 residues) expressed in Rosetta-Gami B(DE3) cells by isothermal titration calorimetry
[4] = Aqueous solubility of compound; type: physicochemical; settings: buffer
Ephrin type-A receptor 2 = Ephrin type-A receptor 2 (Homo sapiens, UniProt P29317); test: Binding affinity to N-terminal His tagged EphA2 LBD (27 to 200 residues) (unknown origin) expressed in Origami (DE3) cells by isothermal titration calorimetry
Ephrin type-A receptor 2, sequence (P29317 whole entry, the tested form may be a part): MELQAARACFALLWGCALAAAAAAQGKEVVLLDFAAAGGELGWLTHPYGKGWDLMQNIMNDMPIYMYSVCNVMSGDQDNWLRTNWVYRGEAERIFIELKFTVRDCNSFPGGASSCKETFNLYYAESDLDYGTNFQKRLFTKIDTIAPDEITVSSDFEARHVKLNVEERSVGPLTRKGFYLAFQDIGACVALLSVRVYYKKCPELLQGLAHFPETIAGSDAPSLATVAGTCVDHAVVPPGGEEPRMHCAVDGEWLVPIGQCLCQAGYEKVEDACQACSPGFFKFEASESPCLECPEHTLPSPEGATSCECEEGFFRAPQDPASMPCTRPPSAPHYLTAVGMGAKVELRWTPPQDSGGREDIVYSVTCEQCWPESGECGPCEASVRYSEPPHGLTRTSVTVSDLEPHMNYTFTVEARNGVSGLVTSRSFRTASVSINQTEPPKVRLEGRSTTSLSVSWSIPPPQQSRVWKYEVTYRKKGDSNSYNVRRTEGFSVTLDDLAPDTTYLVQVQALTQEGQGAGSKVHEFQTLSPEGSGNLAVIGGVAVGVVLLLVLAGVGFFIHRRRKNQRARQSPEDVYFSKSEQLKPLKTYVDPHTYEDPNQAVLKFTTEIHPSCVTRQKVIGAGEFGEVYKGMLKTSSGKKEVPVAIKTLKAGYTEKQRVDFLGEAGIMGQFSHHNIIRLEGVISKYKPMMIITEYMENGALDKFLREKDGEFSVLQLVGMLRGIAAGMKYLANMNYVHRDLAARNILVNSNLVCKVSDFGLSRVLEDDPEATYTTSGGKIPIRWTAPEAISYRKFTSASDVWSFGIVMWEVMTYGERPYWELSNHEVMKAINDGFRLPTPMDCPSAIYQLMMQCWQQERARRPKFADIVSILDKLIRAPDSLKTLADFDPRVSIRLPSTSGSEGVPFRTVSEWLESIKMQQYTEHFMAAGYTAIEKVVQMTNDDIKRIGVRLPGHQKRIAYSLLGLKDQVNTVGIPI

| SMILES | deltaH (Ephrin type-A receptor 4 [1]) | -TdeltaS (Ephrin type-A receptor 4 [2]) | Kd (Ephrin type-A receptor 4 [3]) | solubility [4] | Kd (Ephrin type-A receptor 2) |
| --- | --- | --- | --- | --- | --- |
| NCCCC[C@H](NC(=O)[C@H](Cc1ccc(-c2ccccc2)cc1)NC(=O)[C@H](Cc1c[nH]c2ccc(O)cc12)NC(=O)CCCN)C(N)=O (H-[GABA][Trp(5-OH)][Bip]K-NH2) | -11.2 kcal/mol | 2.54 kcal/mol | 437 nM |  |  |
| N=C(N)NCCCC[C@H](NC(=O)[C@H](Cc1ccc(-c2ccccc2)cc1)NC(=O)[C@H](Cc1c[nH]c2ccc(O)cc12)NC(=O)CCCN)C(=O)NCC(=O)Nc1ccccc1 (H-[GABA][Trp(5-OH)][Bip][hArg]G-NHPh) | -12.3 kcal/mol | 2.87 kcal/mol | 132 nM |  |  |
| N=C(N)NCCCC[C@H](NC(=O)[C@H](Cc1ccc(-c2ccc(Cl)cc2)cc1)NC(=O)[C@H](Cc1c[nH]c2ccc(O)cc12)NC(=O)CCCN)C(N)=O | -10.4 kcal/mol | 2 kcal/mol | 749 nM |  |  |
| N=C(N)NCCCC[C@H](NC(=O)[C@H](Cc1cccc2ccccc12)NC(=O)[C@H](Cc1c[nH]c2ccc(O)cc12)NC(=O)CCCN)C(N)=O (H-[GABA][Trp(5-OH)][1Nal][hArg]-NH2) | -8.22 kcal/mol | 1.46 kcal/mol |  |  |  |
| N=C(N)NCCCC[C@H](NC(=O)[C@H](Cc1ccc(-c2ccccc2)cc1)NC(=O)[C@H](Cc1c[nH]c2ccc(O)cc12)NC(=O)[C@@H]1CC[C@@H](N)C1)C(N)=O | -9.82 kcal/mol | 1.46 kcal/mol | 740 nM |  |  |
| N=C(N)NCCCC[C@H](NC(=O)[C@H](Cc1ccc(-c2ccccc2)cc1)NC(=O)[C@H](Cc1c[nH]c2ccc(O)cc12)NC(=O)CCCN)C(=O)NCC(=O)Nc1ccc(N2CCOCC2)cc1 (H-[GABA][Trp(5-OH)][Bip][hArg]G-{NH(4-morpholinophenyl)}) | -11.2 kcal/mol | 1.63 kcal/mol | 94 nM |  |  |
| N=C(N)NCCCC[C@H](NC(=O)[C@H](Cc1ccc(-c2ccccc2)cc1)NC(=O)[C@H](Cc1c[nH]c2ccccc12)NC(=O)CCN)C(N)=O (HELM PEPTIDE1{[bAla].W.[O=C([C@H](Cc1ccc(-c2ccccc2)cc1)N[*:1])[*:2]].[N=C(N)NCCCC[C@H](N[*:1])C(=O)[*:2]].[am]}$$$$V2.0) | -11.5 kcal/mol | 3.77 kcal/mol | 2130 nM |  |  |
| N=C(N)NCCCC[C@H](NC(=O)[C@H](Cc1ccc(-c2ccccc2)cc1)NC(=O)[C@H](Cc1c[nH]c2ccc(O)cc12)NC(=O)CCCN)C(=O)NCC(=O)NCc1ccccc1O (H-[GABA][Trp(5-OH)][Bip][hArg]G-X1) | -12 kcal/mol | 3 kcal/mol | 258 nM |  |  |
| COc1ccccc1-c1ccc(C[C@H](NC(=O)[C@H](Cc2c[nH]c3ccc(O)cc23)NC(=O)[C@H]2CCC[C@H](N)C2)C(=O)N[C@@H](CCCCNC(=N)N)C(=O)NCC(=O)Nc2ccc(N3CCOCC3)cc2)cc1 ({Cyclohexanoyl(1S,3S-3-NH2)}-[Trp(5-OH)][Phe(4-(2-MeO-Ph))][hArg]G-{NH(4-morpholinophenyl)}) |  |  | 106 nM | > 50 mM | Not Active |
| COc1cc(CNC(=O)CNC(=O)[C@H](CCCCNC(=N)N)NC(=O)[C@H](Cc2ccc(-c3ccccc3)cc2)NC(=O)[C@H](Cc2c[nH]c3ccc(O)cc23)NC(=O)CCCN)cc(OC)c1 (H-[GABA][Trp(5-OH)][Bip][hArg]G-X4) | -11.3 kcal/mol | 2.39 kcal/mol | 307 nM |  |  |
| N=C(N)NCCCC[C@H](NC(=O)[C@H](Cc1ccc(-c2ccccc2)cc1)NC(=O)[C@H](Cc1c[nH]c2ccc(O)cc12)NC(=O)CCCN)C(=O)NCC(=O)Nc1ccccc1O (H-[GABA][Trp(5-OH)][Bip][hArg]G-X2) | -12 kcal/mol | 2.88 kcal/mol | 191 nM |  |  |
| N=C(N)NCCCC[C@H](NC(=O)[C@H](Cc1ccc(-c2ccccc2)cc1)NC(=O)[C@H](Cc1c[nH]c2ccc(O)cc12)NC(=O)CCCN)C(=O)NCC(=O)Nc1ncccc1O (H-[GABA][Trp(5-OH)][Bip][hArg]G-X3) | -9.48 kcal/mol | 0.86 kcal/mol | 488 nM |  |  |
| N=C(N)NCCCC[C@H](NC(=O)[C@H](Cc1ccc(-c2ccccc2)cc1)NC(=O)[C@H](Cc1c[nH]c2ccc(O)cc12)NC(=O)[C@H]1CC[C@H](N)C1)C(N)=O | -8.33 kcal/mol | 0.21 kcal/mol | 1120 nM |  |  |
| N=C(N)NCCCC[C@H](NC(=O)[C@H](Cc1ccc(-c2ccccc2)cc1)NC(=O)[C@H](Cc1c[nH]c2ccccc12)NC(=O)CCCN)C(N)=O (H-[GABA]W[Bip][hArg]-NH2) | -10.7 kcal/mol | 2.27 kcal/mol | 663 nM |  |  |
| N=C(N)NCCCC[C@H](NC(=O)[C@H](Cc1ccc(-c2ccccc2)cc1)NC(=O)[C@H](Cc1c[nH]c2ccc(O)cc12)NC(=O)[C@@H]1CCC[C@@H](N)C1)C(N)=O | -9.39 kcal/mol | 1.32 kcal/mol | 1210 nM |  |  |
| N=C(N)NCCC[C@H](NC(=O)[C@H](Cc1ccc(-c2ccccc2)cc1)NC(=O)[C@H](Cc1c[nH]c2ccc(O)cc12)NC(=O)CCCN)C(N)=O (H-[GABA][Trp(5-OH)][Bip]R-NH2) | -11 kcal/mol | 2.35 kcal/mol | 459 nM |  |  |
| N=C(N)NCCCC[C@H](NC(=O)[C@H](Cc1ccc2ccccc2c1)NC(=O)[C@H](Cc1c[nH]c2ccc(O)cc12)NC(=O)CCCN)C(N)=O (H-[GABA][Trp(5-OH)][2Nal][hArg]-NH2) | -8.49 kcal/mol | 1.27 kcal/mol | 5250 nM |  |  |
| N=C(N)Nc1ccc(C[C@H](NC(=O)[C@H](Cc2ccc(-c3ccccc3)cc2)NC(=O)[C@H](Cc2c[nH]c3ccccc23)NC(=O)CCCN)C(N)=O)cc1 (H-[GABA]W[Bip][Phe(4-guanidino)]-NH2) | -9.43 kcal/mol | 1.33 kcal/mol | 1160 nM |  |  |
| C[C@H](N)C(=O)N[C@@H](Cc1c[nH]c2ccccc12)C(=O)N[C@@H](Cc1ccc(-c2ccccc2)cc1)C(=O)N[C@@H](CCCCNC(=N)N)C(N)=O (HELM PEPTIDE1{A.W.[O=C([C@H](Cc1ccc(-c2ccccc2)cc1)N[*:1])[*:2]].[N=C(N)NCCCC[C@H](N[*:1])C(=O)[*:2]].[am]}$$$$V2.0) | -9.54 kcal/mol | 2.01 kcal/mol | 3020 nM |  |  |
| N=C(N)NCCCC[C@H](NC(=O)[C@H](Cc1ccc(-c2ccccc2)cc1)NC(=O)[C@H](Cc1c[nH]c2ncccc12)NC(=O)CCCN)C(N)=O (H-[GABA][Trp(7-aza)][Bip][hArg]-NH2) | -7.27 kcal/mol | 0.74 kcal/mol | 16300 nM |  |  |
| Cc1ccc(-c2ccc(C[C@H](NC(=O)[C@H](Cc3c[nH]c4ccc(O)cc34)NC(=O)CCCN)C(=O)N[C@@H](CCCCNC(=N)N)C(N)=O)cc2)cc1 | -10.2 kcal/mol | 1.77 kcal/mol | 708 nM |  |  |
| N=C(N)NCCCC[C@H](NC(=O)[C@H](Cc1ccc(-c2ccccc2)cc1)NC(=O)[C@H](Cc1c[nH]c2ccc(O)cc12)NC(=O)[C@H]1CCC[C@H](N)C1)C(N)=O | -8.1 kcal/mol | -0.67 kcal/mol | 370 nM |  |  |
| N=C(N)NCCCC[C@H](NC(=O)[C@H](Cc1ccc(-c2ccccc2)cc1)NC(=O)[C@H](Cc1c[nH]c2ccc(O)cc12)NC(=O)[C@H]1CCC[C@H](N)C1)C(=O)NCC(=O)Nc1ccc(CN2CCOCC2)cc1 ({Cyclohexanoyl(1S,3S-3-NH2)}-[Trp(5-OH)][Bip][hArg]G-{NHPh(4-CH2-morpholino)}) |  |  | 144 nM | > 50 mM | Not Active |
| N=C(N)NCCCC[C@H](NC(=O)[C@H](Cc1ccc(-c2ccccc2)cc1)NC(=O)[C@H](Cc1c[nH]c2ccc(O)cc12)NC(=O)CCCN)C(=O)NCC(=O)Nc1ccc(CN2CCOCC2)cc1 (H-[GABA][Trp(5-OH)][Bip][hArg]G-{NHPh(4-CH2-morpholino)}) | -10.6 kcal/mol | 1.05 kcal/mol | 106 nM |  |  |
| N=C(N)NCCCC[C@@H](NC(=O)[C@H](Cc1ccc(-c2ccccc2)cc1)NC(=O)[C@H](Cc1c[nH]c2ccccc12)NC(=O)CCCN)C(N)=O (H-[GABA]W[Bip][d(hArg)]-NH2) | -9.26 kcal/mol | 0.3 kcal/mol | 270 nM |  |  |
| COc1ccccc1-c1ccc(C[C@H](NC(=O)[C@H](Cc2c[nH]c3ccc(O)cc23)NC(=O)[C@H]2CCC[C@H](N)C2)C(=O)N[C@@H](CCCCNC(=N)N)C(=O)NCC(=O)Nc2ccc(CN3CCOCC3)cc2)cc1 ({Cyclohexanoyl(1S,3S-3-NH2)}-[Trp(5-OH)][Phe(4-(2-MeO-Ph))][hArg]G-{NHPh(4-CH2-morpholino)}) |  |  | 77 nM | > 50 mM | Not Active |
| Cc1ccccc1-c1ccc(C[C@H](NC(=O)[C@H](Cc2c[nH]c3ccc(O)cc23)NC(=O)CCCN)C(=O)N[C@@H](CCCCNC(=N)N)C(N)=O)cc1 | -12.1 kcal/mol | 3.29 kcal/mol | 362 nM |  |  |
| COc1ccc2c(C[C@H](NC(=O)CCCN)C(=O)N[C@@H](Cc3ccc(-c4ccccc4)cc3)C(=O)N[C@@H](CCCCNC(=N)N)C(N)=O)c[nH]c2c1 (H-[GABA][Trp(6-OMe)][Bip][hArg]-NH2) | -10.5 kcal/mol | 2.84 kcal/mol | 2460 nM |  |  |
